In brackets after ≈: the same amount, converted by molar mass. Where a SMILES comes first, the peptide text is derived from it. Bridges are numbered along the chain shown (N, C = ends).
Columns and labels:
[1] = system: human red blood cells (RBC); experiment: Haemolytic activity assay; format: cell-based
Outline: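 Washed human erythrocytes (1% hematocrit final) incubated 1 h at 37 °C with agitation with lipopeptides at 500–3.9 μM in PBS (≤1% DMSO), duplicates. Haemoglobin release read at 545 nm relative to 0.1% Triton X-100; EC50 is 50% haemolysis, averaged from three experiments.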

[2] = system: Gram-negative bacterial strains (E. coli and P. aeruginosa); experiment: Antibacterial MIC assay, Gram-negative strains together (range or geometric mean); format: cell-based; settings: Table S3; MIC >256 set to 256
Outline: (§1)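 Cultures grown in Mueller–Hinton broth were adjusted by OD600 to 2.5–3 × 10^4 CFU/mL and mixed with two-fold peptide dilutions from 256 to 1 µg/mL. Plates were incubated at 35 °C with OD595 monitored every hour for 24 h.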

A. pullulans (Ap) = experiment: microbe, parasite or virus in culture; format: cell-based, Aurobasidium pollulans; settings: 48 h
Outline: (§2)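 Overnight cultures in potato dextrose broth with 2% glucose at 25–30 °C were diluted to approx. 4 × 10^5 spores/mL and mixed 1:1 with two-fold peptide dilutions plated at 256 to 1 µg/mL. After 48 h at room temperature, OD600 was read. MIC was the lowest concentration giving OD below 10% of the growth control, in triplicate.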

[3] = system: B. subtilis (Bs, ATCC 23857); experiment: microbe, parasite or virus in culture; format: cell-based, Bacillus subtilis; settings: ATCC 23857, 24 h
Outline: as §1

[4] = system: P. aeruginosa (Pa, ATCC 27853); experiment: microbe, parasite or virus in culture; format: cell-based, Pseudomonas aeruginosa; settings: ATCC 27853, 24 h
Outline: as §1

[5] = system: S. aureus (Sa, ATCC 9144); experiment: microbe, parasite or virus in culture; format: cell-based, Staphylococcus aureus; settings: ATCC 9144, 24 h
Outline: as §1

Rhodotorula sp. (Rh) = experiment: microbe, parasite or virus in culture; format: cell-based; settings: 48 h
Outline: as §2

[6] = system: C. glutamicum (Cg, ATCC 13032); experiment: microbe, parasite or virus in culture; format: cell-based, Corynebacterium glutamicum; settings: ATCC 13032, 24 h
Outline: as §1

[7] = system: C. albicans (Ca, ATCC 10231); experiment: microbe, parasite or virus in culture; format: cell-based, Candida albicans; settings: ATCC 10231, 48 h
Outline: as §2

[8] = system: E. coli NR698 (outer membrane permeable mutant, imp4213); experiment: microbe, parasite or virus in culture; settings: MC4100 NR698 imp4213, deficient outer membrane
Outline: (§3)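 Broth microdilution in Mueller–Hinton medium, 2.5–3 × 10^4 CFU/mL inoculum, two-fold peptide dilutions from 256 to 1 µg/mL, 35 °C with OD595 read hourly for 24 h. MIC is the lowest concentration giving OD below 10% of the untreated growth control; run in triplicate.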

[9] = system: E. coli MC4100 (wild type, WT); experiment: microbe, parasite or virus in culture; settings: wild type
Outline: as §3

[10] = system: Gram-positive bacterial strains; settings: Table S3; MIC >256 set to 256
Outline: as §1

[11] = system: S. epidermidis RP62A (Se, ATCC 35984); experiment: microbe, parasite or virus in culture; format: cell-based, Staphylococcus epidermidis; settings: ATCC 35984, 24 h
Outline: as §1

E. coli (Ec, ATCC 25922) = experiment: microbe, parasite or virus in culture; format: cell-based, Escherichia coli; settings: ATCC 25922, 24 h
Outline: as §1

[12] = system: fungi (A. pullulans, C. albicans, Rhodotorula sp.); experiment: Antifungal MIC assay, all fungi together (range or geometric mean); format: cell-based; settings: Table S3; MIC >128 set to 128
Outline: as §2

all bacterial strains = experiment: Antibacterial MIC assay, all bacterial strains together (range or geometric mean); format: cell-based
Outline: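 Broth microdilution in Mueller–Hinton broth against B. subtilis, C. glutamicum, S. aureus, S. epidermidis RP62A, E. coli and P. aeruginosa; inoculum 2.5–3 × 10^4 CFU/mL, 35 °C, OD595 read hourly for 24 h. MIC: lowest peptide concentration giving OD below 10% of growth control; geometric mean across strains, triplicate.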

CC(C)C[C@H](NC(=O)[C@H](CCCNC(=N)N)NC(=O)[C@@H]1CSSC[C@H](N)C(=O)NCC(=O)N[C@@H](CCCNC(=N)N)C(=O)N[C@@H](CCCNC(=N)N)C(=O)N2CCC[C@H]2C(=O)N[C@@H](Cc2c[nH]c3ccccc23)C(=O)N[C@@H](Cc2c[nH]c3ccccc23)C(=O)N[C@@H](Cc2c[nH]c3ccccc23)C(=O)N[C@@H](CCCNC(=N)N)C(=O)N1)C(N)=O [cTurg-7] (H-CGRRPWWWRCRL-NH2; disulfide 1-10; N-terminus assumed)
Selectivity index (SI) G- ([1]; Table S3, EC50/GM of Gram-negative strains, highest tested concentration used where EC50 above it): 9 | Selectivity index (SI) G+ ([1]; Table S3, EC50/GM of Gram-positive strains, highest tested concentration used where EC50 above it): 29 | Selectivity index (SI) Fungi ([1]; Table S3, EC50/GM of fungi, highest tested concentration used where EC50 above it): 6 | SI (selectivity index = EC50/GM) ([1]; haemolytic EC50 over GM of MIC against all bacterial strains, Table 1): 20 | RBC Tox. (EC50), haemolytic activity ([1]; human RBC, 1 h, 37 °C, concentration giving 50% haemolysis): 197 µg/mL | GM of MIC G- [2]: 23 µg/mL | Antimicrobial Activity (MIC) Fungi Ap (A. pullulans (Ap)): 32 µg/mL | Antimicrobial Activity (MIC) Gram + Bs [3]: 4 µg/mL | Antimicrobial Activity (MIC) Gram − Pa [4]: 32 µg/mL | Antimicrobial Activity (MIC) Gram + Sa [5]: 16 µg/mL | Antimicrobial Activity (MIC) Fungi Rh (Rhodotorula sp. (Rh)): 32 µg/mL | Antimicrobial Activity (MIC) Gram + Cg [6]: 4 µg/mL | Antimicrobial Activity (MIC) Fungi Ca [7]: 32 µg/mL | MIC E. coli NR698 (mutant) [8]: 8 µg/mL (≈ 4.78 µM) | MIC E. coli MC4100 (WT) [9]: 8 µg/mL (≈ 4.78 µM) | GM of MIC G+ [10]: 7 µg/mL | Antimicrobial Activity (MIC) Gram + Se [11]: 8 µg/mL | Antimicrobial Activity (MIC) Gram − Ec (E. coli (Ec, ATCC 25922)): 16 µg/mL | GM of MIC Fungi [12]: 32 µg/mL | GM (geometric mean of the MIC values against all bacterial strains) (all bacterial strains; Table 1, six bacterial strains): 10 µg/mL | GM of MIC Tot. bact. (all bacterial strains; Table S3, all bacterial test strains, MIC >256 set to 256): 10 µg/mL

Reference: publication PMC9696794, “Synthesis and Antimicrobial Activity of Short Analogues of the Marine Antimicrobial Peptide Turgencin A: Effects of SAR Optimizations, Cys-Cys Cyclization and Lipopeptide Modifications” (International Journal of Molecular Sciences, 2022)
